From patent US20210045385A1, “PYRIDAZINONE-SUBSTITUTED KETOXIMES AS HERBICIDES” (FMC Corporation, priority 2018, published 2021)

Legend:
Assay type in all cases: in vivo
[1] = system: Italian ryegrass (Lolium multiflorum); experiment: Test A preemergence, visual plant response rating; conditions: approx. 10 days
Summary of the method: (§1)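 Ratings use a 0–100 visual scale (100 = complete control) against untreated controls, scored about 10 days after greenhouse treatment. Test chemicals were formulated in surfactant-containing non-phytotoxic solvent and applied either as soil spray after planting (preemergence) or onto one- to two-leaf, 2–10 cm plants (postemergence).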

[2] = system: barnyardgrass (Echinochloa crus-galli); experiment: Test A preemergence, visual plant response rating; conditions: approx. 10 days
Summary of the method: as §1

[3] = system: foxtail, green (green foxtail, Setaria viridis); experiment: Test A preemergence, visual plant response rating; conditions: approx. 10 days
Summary of the method: as §1

kochia (Kochia scoparia) [4] = experiment: Test A preemergence, visual plant response rating; conditions: approx. 10 days
Summary of the method: as §1

[5] = system: pigweed (Amaranthus retroflexus); experiment: Test A preemergence, visual plant response rating; conditions: approx. 10 days
Summary of the method: as §1

[6] = system: ragweed (common ragweed, Ambrosia elatior); experiment: Test A preemergence, visual plant response rating; conditions: approx. 10 days
Summary of the method: as §1

[7] = system: Italian ryegrass (Lolium multiflorum); experiment: Test A postemergence, visual plant response rating; conditions: for Ryegrass, Italian plant response rating (0 to 100 scale): 500 g ai/ha, postemergence, 0 is no effect, 100 is complete control; for Ryegrass, Italian plant response rating: Postemergence, 125 g ai/ha, 0 to 100 scale (0 no effect, 100 complete control)
Summary of the method: as §1

[8] = system: barnyardgrass (Echinochloa crus-galli); experiment: Test A postemergence, visual plant response rating; conditions: for Barnyardgrass plant response rating (0 to 100 scale): 500 g ai/ha, postemergence, 0 is no effect, 100 is complete control; for Barnyardgrass plant response rating: Postemergence, 125 g ai/ha, 0 to 100 scale (0 no effect, 100 complete control)
Summary of the method: as §1

[9] = system: blackgrass (Alopecurus myosuroides); experiment: Test A postemergence, visual plant response rating; conditions: for Blackgrass plant response rating (0 to 100 scale): 500 g ai/ha, postemergence, 0 is no effect, 100 is complete control; for Blackgrass plant response rating: Postemergence, 125 g ai/ha, 0 to 100 scale (0 no effect, 100 complete control)
Summary of the method: as §1

corn (Zea mays) = experiment: Test A postemergence, visual plant response rating; conditions: for Corn plant response rating (0 to 100 scale): 500 g ai/ha, postemergence, 0 is no effect, 100 is complete control; for Corn plant response rating: Postemergence, 125 g ai/ha, 0 to 100 scale (0 no effect, 100 complete control)
Summary of the method: as §1

[10] = system: foxtail, green (green foxtail, Setaria viridis); experiment: Test A postemergence, visual plant response rating; conditions: for Foxtail, Green plant response rating (0 to 100 scale): 500 g ai/ha, postemergence, 0 is no effect, 100 is complete control; for Foxtail, Green plant response rating: Postemergence, 125 g ai/ha, 0 to 100 scale (0 no effect, 100 complete control)
Summary of the method: as §1

[11] = system: galium (catchweed bedstraw, Galium aparine); experiment: Test A postemergence, visual plant response rating; conditions: for Galium plant response rating (0 to 100 scale): 500 g ai/ha, postemergence, 0 is no effect, 100 is complete control; for Galium plant response rating: Postemergence, 125 g ai/ha, 0 to 100 scale (0 no effect, 100 complete control)
Summary of the method: as §1

kochia (Kochia scoparia) [12] = experiment: Test A postemergence, visual plant response rating; conditions: for Kochia plant response rating (0 to 100 scale): 500 g ai/ha, postemergence, 0 is no effect, 100 is complete control; for Kochia plant response rating: Postemergence, 125 g ai/ha, 0 to 100 scale (0 no effect, 100 complete control)
Summary of the method: as §1

[13] = system: pigweed (Amaranthus retroflexus); experiment: Test A postemergence, visual plant response rating; conditions: for Pigweed plant response rating (0 to 100 scale): 500 g ai/ha, postemergence, 0 is no effect, 100 is complete control; for Pigweed plant response rating: Postemergence, 125 g ai/ha, 0 to 100 scale (0 no effect, 100 complete control)
Summary of the method: as §1

[14] = system: ragweed (common ragweed, Ambrosia elatior); experiment: Test A postemergence, visual plant response rating; conditions: for Ragweed plant response rating (0 to 100 scale): 500 g ai/ha, postemergence, 0 is no effect, 100 is complete control; for Ragweed plant response rating: Postemergence, 125 g ai/ha, 0 to 100 scale (0 no effect, 100 complete control)
Summary of the method: as §1

[15] = system: wheat (Triticum aestivum); experiment: Test A postemergence, visual plant response rating; conditions: for Wheat plant response rating (0 to 100 scale): 500 g ai/ha, postemergence, 0 is no effect, 100 is complete control; for Wheat plant response rating: Postemergence, 125 g ai/ha, 0 to 100 scale (0 no effect, 100 complete control)
Summary of the method: as §1

[16] = system: barnyardgrass (Echinochloa crus-galli); experiment: Test B flooded paddy test, visual plant response rating; conditions: 250 g ai/ha, Flood, applied to paddy water, 2-leaf stage, evaluated after 13 to 15 days
Summary of the method: (§2)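 Flooded-pot treatment: water 3 cm over the soil, chemical delivered into that water, depth unchanged for the duration. Assessed by eye versus controls following 13–15 greenhouse days; plants were at 2 leaves when dosed.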

[17] = system: ducksalad (Heteranhera limosa); experiment: as above; conditions: 250 g ai/ha, Flood, applied to paddy water, 2-leaf stage, evaluated after 13 to 15 days
Summary of the method: as §2

rice (Oryza sativa) = experiment: as above; conditions: 250 g ai/ha, Flood, applied to paddy water, 2-leaf stage, evaluated after 13 to 15 days
Summary of the method: as §2

[18] = system: sedge, umbrella (small-flower umbrella sedge, Cyperus difformis); experiment: as above; conditions: 250 g ai/ha, Flood, applied to paddy water, 2-leaf stage, evaluated after 13 to 15 days
Summary of the method: as §2

SMILES	Ryegrass, Italian plant response rating (0 to 100 scale) ([1]; 125 g ai/ha Preemergence)	Ryegrass, Italian plant response rating (0 to 100 scale) ([1]; 500 g ai/ha Preemergence)	Barnyardgrass plant response rating (0 to 100 scale) ([2]; 125 g ai/ha Preemergence)	Barnyardgrass plant response rating (0 to 100 scale) ([2]; 500 g ai/ha Preemergence)	Foxtail, Green plant response rating (0 to 100 scale) ([3]; 125 g ai/ha Preemergence)	Foxtail, Green plant response rating (0 to 100 scale) ([3]; 500 g ai/ha Preemergence)	Kochia plant response rating (0 to 100 scale) (kochia (Kochia scoparia) [4]; 125 g ai/ha Preemergence)	Kochia plant response rating (0 to 100 scale) (kochia (Kochia scoparia) [4]; 500 g ai/ha Preemergence)	Pigweed plant response rating (0 to 100 scale) ([5]; 125 g ai/ha Preemergence)	Pigweed plant response rating (0 to 100 scale) ([5]; 500 g ai/ha Preemergence)	Ragweed plant response rating (0 to 100 scale) ([6]; 125 g ai/ha Preemergence)	Ragweed plant response rating (0 to 100 scale) ([6]; 500 g ai/ha Preemergence)	Ryegrass, Italian plant response rating (0 to 100 scale) [7]	Ryegrass, Italian plant response rating [7]	Barnyardgrass plant response rating (0 to 100 scale) [8]	Barnyardgrass plant response rating [8]	Blackgrass plant response rating (0 to 100 scale) [9]	Blackgrass plant response rating [9]	Corn plant response rating (0 to 100 scale) (corn (Zea mays))	Corn plant response rating (corn (Zea mays))	further results
CCn1nc(C)c(O)c(/C(=N/OC)c2cccc(C)c2)c1=O [Compound 1]	0	40	0	0	10	30	0	0	0	0	0	10	20	0	10	0	20	0	0	0	Foxtail, Green plant response rating (0 to 100 scale) [10]: 10; Foxtail, Green plant response rating [10]: 0; Galium plant response rating (0 to 100 scale) [11]: 30; Galium plant response rating [11]: 0; Kochia plant response rating (0 to 100 scale) (kochia (Kochia scoparia) [12]): 0; Kochia plant response rating (kochia (Kochia scoparia) [12]): 0; Pigweed plant response rating (0 to 100 scale) [13]: 0; Pigweed plant response rating [13]: 0; Ragweed plant response rating (0 to 100 scale) [14]: 0; Ragweed plant response rating [14]: 0; Wheat plant response rating (0 to 100 scale) [15]: 0; Wheat plant response rating [15]: 0; Plant response rating, Barnyardgrass (0 to 100 scale, 0 is no effect, 100 is complete control) [16]: 0; Plant response rating, Ducksalad (0 to 100 scale, 0 is no effect, 100 is complete control) [17]: 0; Plant response rating, Rice (0 to 100 scale, 0 is no effect, 100 is complete control) (rice (Oryza sativa)): 0; Plant response rating, Sedge, Umbrella (0 to 100 scale, 0 is no effect, 100 is complete control) [18]: 0
CCO/N=C(\c1cccc(Cl)c1)c1c(O)c(C)nn(C)c1=O [Compound 8]	50	50	0	20	10	30	10	60	30	90	0	100	60	30	10	0	20	0	0	0	Foxtail, Green plant response rating (0 to 100 scale) [10]: 20; Foxtail, Green plant response rating [10]: 10; Galium plant response rating (0 to 100 scale) [11]: 90; Galium plant response rating [11]: 80; Kochia plant response rating (0 to 100 scale) (kochia (Kochia scoparia) [12]): 70; Kochia plant response rating (kochia (Kochia scoparia) [12]): 10; Pigweed plant response rating (0 to 100 scale) [13]: 20; Pigweed plant response rating [13]: 0; Ragweed plant response rating (0 to 100 scale) [14]: 80; Ragweed plant response rating [14]: 20; Wheat plant response rating (0 to 100 scale) [15]: 0; Wheat plant response rating [15]: 0; Plant response rating, Barnyardgrass (0 to 100 scale, 0 is no effect, 100 is complete control) [16]: 0; Plant response rating, Ducksalad (0 to 100 scale, 0 is no effect, 100 is complete control) [17]: 0; Plant response rating, Rice (0 to 100 scale, 0 is no effect, 100 is complete control) (rice (Oryza sativa)): 0; Plant response rating, Sedge, Umbrella (0 to 100 scale, 0 is no effect, 100 is complete control) [18]: 0
